# According to patent US20260364056A1, “METHODS OF TREATMENT OF NON-PANCREATIC GASTROINTESTINAL CANCERS” (IONCTURA bv, priority 2023, published 2026):
# Tests used:
# HT-29 cells [1] = experiment: Wound healing assay; assay type: cell-based, human; settings: 9 and 12 μM, serum-free
# Experimental: Cells were seeded in a 12-well plate in 10% FBS medium and grown to reach a 80-90% confluence. Then, a scratch was made on the cell monolayer by using a p200 pipette tip. The plate was washed with sterile PBS to remove the debris and on the outer bottom of the plate were created markings with a tip marker, used as reference points. Each cell line was incubated with medium without FBS and containing increasing concentrations of Compound 1 (1-3-9-12 μM). Images were acquired at 0, 24 and 48 h by using a confocal microscope Nikon Eclipse Ti2 in bright field microscope and analysed with image-J. Image-J software was used to measure the scratched area. Cell migratory ability of wound-healing was assessed using the following formula: [(wound area at 0 h)−(wound area at indicated time)]/(wound area at 0 h).
# (§1) Images were taken at time 0, 24 h and 48 h and cell migration into the cell-free region (outlined) was quantified.
# Tumor progression is characterized by an enhanced cell motility and invasiveness. To expand upon the knowledge of the effects of Compound 1 on HLE, KKU-m213 and HT-29 cells, their migratory activity was assessed when treated with Compound 1 by using both, a wound healing and a transwell migration assay. Cells were seeded in a 12-well plate and, when a confluent monolayer was reached, an artificial gap was generated between the cells using a pipette tip. […]
# KKU-M213 cells [2] = experiment: Annexin V staining (early apoptosis); assay type: cell-based, human; settings: 3, 9 and 12 mM (so in the source), 4 h, serum-free, dose dependent
# Experimental: (§2) For detection of early apoptosis the Annexin V-FITC kit (Miltenyi Biotech) was used. Cells were seeded and grown on Nunc Lab-Tek II Chamber Slide. After a wash with PBS, cells were incubated with Compound 1 3, 9 and 12 μM in serum-free medium. After […] cells were washed with Binding Buffer (BB) and stained with a solution of Annexin V-FITC antibody in BB for 15′. After 2 washes with BB the cells were fixed with a 4% paraformaldehyde solution and a coverslip was mounted onto the slide using a DAPI Ready Made Solution with Antifade (Merck). Images were acquired using a confocal microscope Nikon Eclipse Ti2 and analysed with image-J.
# (§3) Fluorescence microscopy of cells treated with 3, 9 and 12 μM Compound 1 for 4 h and stained with Annexin V-FITC antibody. Annexin V positive cells are early apoptotic cells. Green fluorescence (Annexin V) was quantified using ImageJ software and correlated to DAPI blue fluorescence (nuclei).
# (§4) To further explore the activity of Compound 1 on gastrointestinal cancer cells, the effectiveness on cell apoptosis was investigated. Following incubation with Compound 1, cells underwent morphological changes of cell shrinkage and cytoplasmic vacuolization (FIG. 1C). An early event in apoptosis is represented by the loss of plasma membrane asymmetry, resulting in the translocation of phosphatidylserine (PS) from the inner to the outer plasma membrane leaflet. Exposed PS on the cell surface can be used to measure apoptosis by the binding with Annexin V. KKU-M213, HLE and HT-29 cells were incubated with increasing concentrations of Compound 1 (3, 9 and 12 μM). After 4 hours, cells were stained with a FITC-Annexin V antibody and fixed. […] Moreover, a human apoptosis antibody array was used to identify the differential expression of 43 apoptosis-related proteins in cells treated with 12 μM Compound 1 for 24 h compared to untreated cells.
# HT-29 cells [3] = experiment: Annexin V staining (early apoptosis); assay type: cell-based, human; settings: 3, 9 and 12 mM (so in the source), 4 h, serum-free, dose dependent
# Experimental: as §2, §3, §4
# HLE cells [4] = experiment: Annexin V staining (early apoptosis); assay type: cell-based, human; settings: 9 and 12 mM (so in the source), 4 h, serum-free; same effect = significantly (p<0.05) induced cell apoptosis
# Experimental: as §2, §3, §4
# KKU-M213 cells [5] = experiment: Crystal violet staining and morphology under inverted light microscope; assay type: cell-based, human; settings: 3, 9 and 12 μM, 72 h
# ATX = settings: cited from earlier work
# [6] = tested on: Intrahepatic cholangiocarcinoma cancer cells (patient-derived organoid cultures); experiment: Patient-derived organoid formation/growth; assay type: cell-based; settings: 3, 9 and 12 μm (so in the source), 14 days, compared to vehicle, P<0.001
# Experimental: To further explore the activity of Compound 1 on gastrointestinal cancer cells, the effectiveness on organoid formation was investigated. Intrahepatic cholangiocarcinoma cancer cells were isolated from tumour tissues, counted and embedded in 96-well plate with Matrigel. After 3D-model formation, three different concentrations of Compound 1 (3, 9 and 12 μm) were tested in these patient-derived organoid (PDO) cultures. […] Scale bars correspond to 50 μm, Data are presented as the mean±SD; ***P<0.001.
# [7] = tested on: apoptosis-related proteins; experiment: Human apoptosis antibody array; assay type: cell-based; settings: 12 μM, 24 h, vs untreated cells
# Experimental: The Human Apoptosis Antibody Array Kit (ab134001, Abcam) was used to detect the apoptosis pathway. Briefly, cells were lysed and each membrane was incubated at 4 °C overnight with 500 μg of total extracted protein. Membranes were then washed and incubated overnight at 4 °C with Biotin-conjugated Anti-Cytokines. After an incubation of the membranes with HRP-streptavidin for 2 h at room temperature, chemiluminescence was detected using ChemiDoc XRS+ (Bio-Rad, Hercules, CA, USA). The images were analysed with Image Lab 5.2.1.
# The representative images were randomly selected from at least 3 independent experiments.
# To further explore the activity of Compound 1 on gastrointestinal cancer cells, the effectiveness on cell apoptosis was investigated. Following incubation with Compound 1, cells underwent morphological changes of cell shrinkage and cytoplasmic vacuolization (FIG. 1C). An early event in apoptosis is represented by the loss of plasma membrane asymmetry, resulting in the translocation of phosphatidylserine (PS) from the inner to the outer plasma membrane leaflet. Exposed PS on the cell surface can be used to measure apoptosis by the binding with Annexin V. KKU-M213, HLE and HT-29 cells were incubated with increasing concentrations of Compound 1 (3, 9 and 12 μM). After 4 hours, cells were stained with a FITC-Annexin V antibody and fixed. […]
# pancreatic cancer = settings: compared with gemcitabine; cited from earlier work
# KKU-M213 cells [8] = experiment: Transwell migration assay; assay type: cell-based, human; settings: 12 μM, 24 h, serum-free medium in upper chamber
# Experimental: (§5) Cell culture inserts with […] pores (Corning, inc.) were coated with 50 μl of a 10 mg/ml Collagen type 1 solution (Gibco). 1.5×10^4 cells were plated in the upper chamber in serum-free medium, in absence or presence of 12 μM Compound 1, while the bottom wells were filled with complete medium. The cells were allowed to migrate across the membrane for at least 16 h. After incubation, the cells were fixed with PFA 4% for 10′ and stained with 0.02% crystal violet for 10′. The excess dye was washed off with tap water and the non-migrated cells were scraped off from the upper surface of the membrane with a cotton swab. Cell migratory ability was assessed by counting the average number of cells at least 5 field at 10× magnification.
# as §1
# (§6) Tumor progression is characterized by an enhanced cell motility and invasiveness. To expand upon the knowledge of the effects of Compound 1 on HLE, KKU-m213 and HT-29 cells, their migratory activity was assessed when treated with Compound 1 by using both, a wound healing and a transwell migration assay. Cells were seeded in a 12-well plate and, when a confluent monolayer was reached, an artificial gap was generated between the cells using a pipette tip. The scratch closure of migrating cells was observed after […]. […] In HLE cells a 3 μM concentration of Compound 1 is already sufficient to cause a 40% inhibition of cell migration. […] (FIG. 3B).
# HT-29 cells [9] = experiment: Transwell migration assay; assay type: cell-based, human; settings: 12 μM, 24 h, serum-free medium in upper chamber
# Experimental: as §5, §1, §6
# HLE cells [10] = experiment: Transwell migration assay; assay type: cell-based, human; settings: 12 μM, 24 h, serum-free medium in upper chamber
# Experimental: as §5, §1, §6
# breast cancer = settings: in vivo; cited from earlier work
smiles,measurement,setting,value
"C[C@H](NC(=O)CCc1nc2cccnc2n1Cc1ccc(OC(F)(F)F)cc1)c1ccc(Cl)cc1 [Compound 1, N-[(S)-1-(4-chloro-phenyl)-ethyl]-3-[3-(4-trifluoromethoxy-benzyl)-3H-imidazo[4,5-b]pyridin-2-yl]-propionamide]",inhibition of wound closure,HT-29 cells [1],significantly (p<0.05) inhibited wound closure
same,induction of cell apoptosis (Annexin V),KKU-M213 cells [2],significantly (p<0.05) induced cell apoptosis
same,induction of cell apoptosis (Annexin V),HT-29 cells [3],significantly (p<0.05) induced cell apoptosis
same,induction of cell apoptosis (Annexin V),HLE cells [4],the same effect was seen
same,morphological changes,KKU-M213 cells [5],cells exhibit morphological changes and characteristics of apoptosis such as cell shrinkage and cytoplasmic vacuolization
same,binding site on ATX,ATX,does not bind to the catalytic zinc region of ATX but binds to both the substrate pocket and the LPA carrier channel
same,organoid growth inhibition,[6],significant organoid growth inhibition
same,differential expression of apoptosis-related proteins,[7],"upregulating pro-apoptosic proteins including Bim, Caspase-3 and -8, HTRA, DR6, Fas, p53 and SMAC"
same,activity in pancreatic cancer model,pancreatic cancer,comparable activity with gemcitabine
same,migratory capacity (migrated cells through the membrane),KKU-M213 cells [8],significantly inhibited migratory capacity
same,migratory capacity (migrated cells through the membrane),HT-29 cells [9],significantly inhibited migratory capacity
same,migratory capacity (migrated cells through the membrane),HLE cells [10],significantly inhibited migratory capacity
same,dissemination of primary tumors,breast cancer,inhibit the dissemination of primary tumors
